The values that follow come from ChEMBL document CHEMBL1201862, “PubChem BioAssay data set” (2004).

Among the test systems are Hs-578T; MCF7; UO-31; RPMI-8226; SNB-75; UACC-257; PC-3; SW-620; MDA-MB-231; 786-0; SK-MEL-2; KM12; DU-145; U-251; SF-539; LOX IMVI; SF-268; TK-10; Malme-3M; MOLT-4.
Holding throughout (assay): NCI anticancer screen, dose series, 48 h

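Grown in 96-well plates, cells were treated for 48 hours with each compound at five concentrations. Insufficient inhibition: endpoint recorded as highest concentration tested. GI50 = concentration required for 50% inhibition of growth.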 Calls of active or inactive are those of the source. No stated cut-off is given here; in the data, active = GI50 up to about 1.1 µM and inactive = higher.

Take `O=C(O)C1CC(C2CCCCN2)CN2CCCCC12` (stereo not given): the GI50 with Hs-578T, in the assay on MCF7, with UO-31, in the assay with RPMI-8226, in the assay with SNB-75 and with UACC-257 was > 100 µM (inactive) each time. For the same molecule, the GI50 in the assay on PC-3, in the assay with SW-620, in the assay on MDA-MB-231, in the assay on 786-0, in the assay with SK-MEL-2 and in the assay on KM12 was > 100 µM (inactive) each time. For the same molecule, the GI50 with DU-145 is > 100 µM (inactive); in the assay on U-251, > 100 µM (inactive); with SF-539, 57.5 µM (inactive); in the assay with LOX IMVI, > 100 µM (inactive); with SF-268, > 100 µM (inactive); in the assay on TK-10 it was > 100 µM (inactive). Also, the GI50 with Malme-3M and in the assay on MOLT-4 was > 100 µM (inactive) each time.
Turning to `[N-]=[N+]=Nc1c([N+](=O)[O-])c(=O)n(-c2ccccc2)c2ccccc12`, the GI50 was 20 µM (inactive) with Hs-578T; 20.7 µM (inactive) with MCF7; 14.8 µM (inactive) in the assay with UO-31; 16 µM (inactive) with RPMI-8226; 20.1 µM (inactive) with SNB-75; 34.4 µM (inactive) in the assay with UACC-257. The GI50 was 16.6 µM (inactive) with PC-3; 29.2 µM (inactive) in the assay on SW-620; 17.8 µM (inactive) in the assay on MDA-MB-231; 19.5 µM (inactive) in the assay on 786-0; 17.9 µM (inactive) in the assay on SK-MEL-2; 26.7 µM (inactive) in the assay with KM12. Besides, the GI50 was 35.2 µM (inactive) with DU-145; 20.7 µM (inactive) in the assay on U-251; 25.5 µM (inactive) in the assay on SF-539; 17.5 µM (inactive) with LOX IMVI; 22.5 µM (inactive) in the assay on SF-268; 14.2 µM (inactive) in the assay with TK-10. Moreover, the GI50 in the assay on Malme-3M is 17 µM (inactive); in the assay with MOLT-4, 21.4 µM (inactive).
Take `O=S(=O)(Nc1ccccc1S(=O)(=O)c1ccccc1)c1ccccc1`: the GI50 with Hs-578T is 51.9 µM (inactive); with MCF7 it was > 100 µM (inactive); in the assay with UO-31, > 100 µM (inactive); with RPMI-8226, 32.3 µM (inactive); in the assay with SNB-75 it was > 100 µM (inactive); in the assay on UACC-257, 73.1 µM (inactive). Moreover, the GI50 was 52.4 µM (inactive) in the assay with PC-3; 92.3 µM (inactive) in the assay on SW-620; > 100 µM (inactive) with MDA-MB-231; > 100 µM (inactive) in the assay on 786-0; 64.3 µM (inactive) with SK-MEL-2; 56.8 µM (inactive) in the assay with KM12. The GI50 in the assay with DU-145 was 87.9 µM (inactive); with U-251, 41.1 µM (inactive); in the assay with SF-539 it was > 100 µM (inactive); with LOX IMVI, > 100 µM (inactive); in the assay on SF-268 it was 91 µM (inactive); with TK-10, > 100 µM (inactive). Besides, the GI50 in the assay with Malme-3M was 69.5 µM (inactive); with MOLT-4 it was 65.8 µM (inactive).
Take `CCOCCOC(=O)C1CCC(=O)N1CN(C(C)=O)c1cc(OC)ccc1OC` (stereo not given): the GI50 with Hs-578T, in the assay on MCF7, in the assay on UO-31, with RPMI-8226, with SNB-75 and in the assay on UACC-257 was > 100 µM (inactive) in each case. The GI50 with PC-3, in the assay on SW-620, with MDA-MB-231, in the assay on 786-0, in the assay with SK-MEL-2 and with KM12 was > 100 µM (inactive) throughout. For the same molecule, the GI50 in the assay with DU-145, in the assay on U-251, in the assay with SF-539, in the assay on LOX IMVI, in the assay on SF-268 and in the assay on TK-10 was > 100 µM (inactive) throughout. The GI50 in the assay on Malme-3M and with MOLT-4 was > 100 µM (inactive) in each case.
`COc1cc2cc(C(=O)N3CC(CCl)c4ccc(NCCN)cc43)[nH]c2c(OC)c1OC` (stereo not given): the GI50 in the assay with Hs-578T was 0.472 µM (active); in the assay with MCF7 it was 0.0361 µM (active); in the assay on UO-31 it was 0.132 µM (active); with RPMI-8226 it was 0.153 µM (active); in the assay on SNB-75, 0.232 µM (active); in the assay with UACC-257 it was 0.251 µM (active). Further, the GI50 with PC-3 was 0.117 µM (active); in the assay with SW-620, 0.151 µM (active); with MDA-MB-231 it was 0.223 µM (active); with 786-0, 0.228 µM (active); in the assay on SK-MEL-2, 0.179 µM (active); with KM12 it was 0.206 µM (active). Moreover, the GI50 in the assay with DU-145 is 0.08 µM (active); in the assay on U-251, 0.175 µM (active); with SF-539 it was 0.209 µM (active); in the assay on LOX IMVI, 0.155 µM (active); in the assay with SF-268, 0.242 µM (active); with TK-10, 0.33 µM (active). The GI50 in the assay on Malme-3M was 0.172 µM (active); with MOLT-4, 0.0575 µM (active).
For `O=c1/c(=C/c2ccc(-c3ccc(Cl)cc3Cl)o2)sc2n1[C@@H](c1ccc(Cl)cc1)C=C(c1cc(F)c(Cl)cc1Cl)N=2`, the GI50 with Hs-578T is 29.6 µM (inactive); in the assay with MCF7, 33.5 µM (inactive); in the assay with UO-31 it was 41.5 µM (inactive); with RPMI-8226, 31.1 µM (inactive); in the assay on SNB-75, 63.4 µM (inactive); with UACC-257, 34.6 µM (inactive). The GI50 is > 100 µM (inactive) in the assay with PC-3; 33.6 µM (inactive) in the assay with SW-620; 23.6 µM (inactive) with MDA-MB-231; 45.3 µM (inactive) in the assay with 786-0; 40.5 µM (inactive) in the assay with SK-MEL-2; 87.5 µM (inactive) in the assay on KM12. Also, the GI50 is 65.2 µM (inactive) in the assay on DU-145; 31.5 µM (inactive) in the assay on U-251; 34.8 µM (inactive) with SF-539; 57.9 µM (inactive) in the assay on LOX IMVI; 36.1 µM (inactive) in the assay with SF-268; 13.4 µM (inactive) in the assay with TK-10. In addition, the GI50 was > 100 µM (inactive) in the assay with Malme-3M and 22.4 µM (inactive) in the assay on MOLT-4.
Regarding `CCOC(=O)c1[nH]cc(C)c1-c1c[nH]c2ccccc12`, the GI50 is 16.7 µM (inactive) with Hs-578T; 22.3 µM (inactive) in the assay with MCF7; 19.3 µM (inactive) in the assay on UO-31; 7.35 µM (inactive) in the assay with RPMI-8226; 28.1 µM (inactive) in the assay with SNB-75; 26.2 µM (inactive) in the assay on UACC-257. Further, the GI50 in the assay on PC-3 is 14 µM (inactive); in the assay on SW-620, 27.9 µM (inactive); with MDA-MB-231, 9.57 µM (inactive); in the assay on 786-0, 34.9 µM (inactive); with SK-MEL-2 it was 29.4 µM (inactive); in the assay with KM12, 42.6 µM (inactive). Further, the GI50 in the assay on DU-145 was 45 µM (inactive); in the assay with U-251, 19.7 µM (inactive); in the assay on SF-539 it was 22.8 µM (inactive); in the assay with LOX IMVI, 18 µM (inactive); in the assay on SF-268, 23.7 µM (inactive); in the assay on TK-10 it was 19.5 µM (inactive). Besides, the results for the GI50 in the assay on Malme-3M and in the assay with MOLT-4 were 42.7 µM (inactive) and 4.11 µM (inactive), respectively.
With `CC(C)(C)n1c(=O)[nH]n(C2NN=Cc3cccc4cccc2c34)c1=O` (stereo not given), the GI50 is 39.4 µM (inactive) in the assay with Hs-578T; 30.6 µM (inactive) in the assay on MCF7; 14.1 µM (inactive) with UO-31; 16.3 µM (inactive) with RPMI-8226; 21.9 µM (inactive) in the assay on SNB-75; 54.3 µM (inactive) in the assay on UACC-257. Further, the GI50 is 31.8 µM (inactive) in the assay with PC-3; 47.3 µM (inactive) with SW-620; 21.5 µM (inactive) with MDA-MB-231; 57.1 µM (inactive) with 786-0; 32.1 µM (inactive) in the assay on SK-MEL-2; 34 µM (inactive) in the assay with KM12. The GI50 in the assay with DU-145 is > 100 µM (inactive); in the assay with U-251, 44.2 µM (inactive); in the assay with SF-539, 16.9 µM (inactive); in the assay on LOX IMVI it was 26.9 µM (inactive); with SF-268, 26.1 µM (inactive); with TK-10, 41.3 µM (inactive). Besides, the GI50 in the assay with Malme-3M was 36 µM (inactive); in the assay on MOLT-4, 20.8 µM (inactive).
`O=C1Nc2ccc(S(=O)(=O)O)cc2/C1=N/Nc1ccccc1[N+](=O)[O-]`: the GI50 in the assay on Hs-578T, in the assay on MCF7, in the assay on UO-31, in the assay with RPMI-8226, with SNB-75 and with UACC-257 was > 100 µM (inactive) each time. For the same molecule, the GI50 in the assay with PC-3, with SW-620, with MDA-MB-231, with 786-0, in the assay with SK-MEL-2 and with KM12 was > 100 µM (inactive) in each case. The GI50 in the assay with DU-145, with U-251, in the assay on SF-539, in the assay on LOX IMVI, in the assay on SF-268 and with TK-10 was > 100 µM (inactive) throughout. For the same molecule, the GI50 with Malme-3M and with MOLT-4 was > 100 µM (inactive) throughout.
`CCCCCCC(O)C(O)CCC(O)C1CCC(CCCCC(O)CC2=CC(C)OC2=O)O1` (stereo not given) [ACETOGENINS]: the GI50 is 2.23 µM (inactive) in the assay on Hs-578T; 1.26 µM (inactive) in the assay on MCF7; 2.06 µM (inactive) in the assay on UO-31; 7.41 µM (inactive) with RPMI-8226; 2.69 µM (inactive) in the assay with SNB-75; 1.86 µM (inactive) in the assay on UACC-257. The GI50 was 2.78 µM (inactive) with PC-3; 4.04 µM (inactive) in the assay with SW-620; 1.2 µM (inactive) in the assay on MDA-MB-231; 6.58 µM (inactive) in the assay on 786-0; 2.99 µM (inactive) in the assay with SK-MEL-2; 2.15 µM (inactive) with KM12. Besides, the GI50 with DU-145 was 6.19 µM (inactive); in the assay with U-251 it was 3.54 µM (inactive); in the assay on SF-539, 4.29 µM (inactive); with LOX IMVI it was 1.39 µM (inactive); in the assay on SF-268, 2.06 µM (inactive); with TK-10, 8.09 µM (inactive). Besides, the GI50 in the assay with Malme-3M is 17 µM (inactive); in the assay on MOLT-4, 2.59 µM (inactive).
